Test results from ChEMBL document CHEMBL5055665, “Discovery of the Triazolo[1,5-a]Pyrimidine-Based Derivative WS-898 as a Highly Efficacious and Orally Bioavailable ABCB1 Inhibitor Capable of Overcoming Multidrug Resistance” (J Med Chem, 2021).
pIC50: −log10 of the molar value. Activity calls are given as the source filed them. The calls are words filed in the database; no cut-off is given here.

Columns and labels:
HEK293 [1] = experiment: Reversal of resistance to paclitaxel-induced cytotoxicity in human HEK293/pcDNA3.1 cells assessed as reversal fold at 1 uM preincubated for 4 hrs followed by paclitaxel addition and measured after 72 hrs by MTT assay; format: functional; conditions: time 76 hrs
Mus musculus [2] = experiment: Toxicity in BALB/c mouse xenografted with human SW-620/AD300 cells assessed as change in body weight at 30 mg/kg/day, ig administered 21 days; format: organism-based; conditions: in vivo, po, 504 h, time 21 day
KB 3-1 [3] = experiment: Reversal of resistance to paclitaxel-induced cytotoxicity in human KB 3-1 cells assessed as reversal fold at 1 uM preincubated for 4 hrs followed by paclitaxel addition and measured after 72 hrs by MTT assay relative to paclitaxel; format: functional; conditions: time 76 hrs
SW-620 [4] = experiment: Reversal of resistance to paclitaxel-induced cytotoxicity in human SW-620 cells assessed as reduction in paclitaxel IC50 at 1 uM preincubated for 4 hrs followed by paclitaxel addition and measured after 72 hrs by MTT assay (reference value: 7.69 +/- 2.78 nM); format: functional, cell-based
Mus musculus [5] = experiment: Toxicity in BALB/c mouse xenografted with human SW-620/AD300 cells assessed as mortality at 30 mg/kg/day, ig administered 21 days; format: organism-based; conditions: in vivo, po, 504 h, time 21 day
[6] = Clearance in Sprague-Dawley rat at 10 mg/kg, iv measured up to 24 hrs by LC-MS/MS analysis; format: ADME, organism-based; conditions: in vivo
SW-620 [7] = experiment: Reversal of resistance to paclitaxel-induced cytotoxicity in human SW-620/AD300 cells assessed as reduction in paclitaxel IC50 at 1 uM preincubated for 4 hrs followed by paclitaxel addition and measured after 72 hrs by MTT assay (reference value: 4.23 +/- 0.50 uM); format: functional, cell-based
SW-620 [8] = experiment: Reversal of resistance to paclitaxel-induced cytotoxicity in human SW-620/AD300 cells assessed as reduction in paclitaxel IC50 at 2 uM preincubated for 4 hrs followed by paclitaxel addition and measured after 72 hrs by MTT assay (reference value: 4.23 +/- 0.50 uM); format: functional, cell-based
SW-620 [9] = experiment: Antitumor activity against human SW-620/AD300 cells xenografted in BALB/c nude mouse assessed as increase in cells with vacuoles at 30 mg/kg/day, ig administered for 21 days in presence of paclitaxel by TUNEL staining based fluorescence microscopy; format: functional, organism-based; conditions: time 21.0 day
SW-620 [10] = experiment: Reversal of resistance to paclitaxel-induced cytotoxicity in human SW-620/AD300 cells assessed as reversal fold at 2 uM preincubated for 4 hrs followed by paclitaxel addition and measured after 72 hrs by MTT assay relative to paclitaxel; format: functional; conditions: time 76 hrs
[11] = target: ATP-dependent translocase ABCB1 (Homo sapiens, UniProt P08183); experiment: Activation of ABCB1 ATPase activity (unknown origin) assessed as fold stimulation of ATP hydrolysis at 0 to 20 uM using Mg-ATP as substrate incubated for 20 mins by spectrophotometric method; conditions: dose 0-20 µM
Sequence of ATP-dependent translocase ABCB1 (P08183 whole entry): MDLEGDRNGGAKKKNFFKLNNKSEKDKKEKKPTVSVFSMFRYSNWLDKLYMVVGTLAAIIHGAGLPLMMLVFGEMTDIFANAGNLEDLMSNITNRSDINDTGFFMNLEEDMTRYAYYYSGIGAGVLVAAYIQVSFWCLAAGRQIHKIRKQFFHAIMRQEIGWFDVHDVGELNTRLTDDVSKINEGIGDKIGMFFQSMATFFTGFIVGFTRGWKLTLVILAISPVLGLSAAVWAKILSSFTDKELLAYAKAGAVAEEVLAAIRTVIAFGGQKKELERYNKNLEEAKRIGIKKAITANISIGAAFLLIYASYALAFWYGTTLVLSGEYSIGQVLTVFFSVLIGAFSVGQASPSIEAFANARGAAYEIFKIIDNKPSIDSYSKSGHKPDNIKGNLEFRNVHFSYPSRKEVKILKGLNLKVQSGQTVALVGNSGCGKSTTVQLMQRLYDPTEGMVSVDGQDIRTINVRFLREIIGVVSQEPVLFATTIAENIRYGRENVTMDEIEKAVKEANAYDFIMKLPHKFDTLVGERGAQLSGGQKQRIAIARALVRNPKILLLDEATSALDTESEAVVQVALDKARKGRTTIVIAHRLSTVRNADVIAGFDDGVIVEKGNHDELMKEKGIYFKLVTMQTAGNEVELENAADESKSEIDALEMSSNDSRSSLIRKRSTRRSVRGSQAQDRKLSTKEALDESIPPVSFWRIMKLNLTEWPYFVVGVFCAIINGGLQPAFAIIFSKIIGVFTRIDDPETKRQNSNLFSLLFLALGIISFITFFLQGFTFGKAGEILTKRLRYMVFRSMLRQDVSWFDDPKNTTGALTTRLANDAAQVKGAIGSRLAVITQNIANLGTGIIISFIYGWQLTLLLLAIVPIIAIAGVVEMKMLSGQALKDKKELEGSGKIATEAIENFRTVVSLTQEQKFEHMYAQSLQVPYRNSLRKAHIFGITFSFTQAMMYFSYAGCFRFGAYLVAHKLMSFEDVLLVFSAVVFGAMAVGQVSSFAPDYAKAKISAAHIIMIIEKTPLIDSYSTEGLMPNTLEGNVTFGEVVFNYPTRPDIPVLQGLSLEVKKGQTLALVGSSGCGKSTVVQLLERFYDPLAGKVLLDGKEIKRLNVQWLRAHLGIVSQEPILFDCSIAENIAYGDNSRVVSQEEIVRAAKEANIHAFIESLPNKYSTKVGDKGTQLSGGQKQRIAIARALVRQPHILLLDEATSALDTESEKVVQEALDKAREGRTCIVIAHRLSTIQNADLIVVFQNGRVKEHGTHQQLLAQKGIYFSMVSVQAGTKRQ

Mus musculus [12] = experiment: Toxicity in BALB/c mouse xenografted with human SW-620/AD300 cells assessed as mortality at 30 mg/kg/day, ig administered 21 days in presence of paclitaxel; format: organism-based; conditions: in vivo, po, 504 h, time 21 day
SW-620 [13] = experiment: Antitumor activity against human SW-620/AD300 cells xenografted in BALB/c nude mouse assessed as tumor growth inhibition at 30 mg/kg/day, ig administered for 21 days in presence of paclitaxel; format: functional; design: scale not given: the % may be the effect or the level left; conditions: time 21 day
HEK293 [14] = experiment: Reversal of resistance to paclitaxel-induced cytotoxicity in human HEK293/pcDNA3.1 cells assessed as reversal fold at 2 uM preincubated for 4 hrs followed by paclitaxel addition and measured after 72 hrs by MTT assay; format: functional; conditions: time 76 hrs
SW-620 [15] = experiment: Reversal of resistance to paclitaxel-induced cytotoxicity in human SW-620/AD300 cells assessed as reversal fold at 1 uM preincubated for 4 hrs followed by paclitaxel addition and measured after 72 hrs by MTT assay relative to paclitaxel; format: functional; conditions: time 76 hrs
KB 3-1 [16] = experiment: Reversal of resistance to paclitaxel-induced cytotoxicity in human KB 3-1 cells assessed as reduction in paclitaxel IC50 at 1 uM preincubated for 4 hrs followed by paclitaxel addition and measured after 72 hrs by MTT assay (reference value: 4.54 +/- 1.59 nM); format: functional, cell-based
KB-C2 = experiment: Reversal of resistance to paclitaxel-induced cytotoxicity in human KB-C2 cells assessed as reversal fold at 1 uM preincubated for 4 hrs followed by paclitaxel addition and measured after 72 hrs by MTT assay relative to paclitaxel; format: functional; conditions: time 76 hrs

In the case of Cc1cc(Nc2ccc(C(=O)/C=C/c3ccc4ccccc4c3)cc2)n2nc(SCc3nc4ccccc4[nH]3)nc2n1, the “fold change (FC)” value (HEK293 [1]) was 1.14, the Activity (Mus musculus [2]) was “Non-Toxic” and the “fold change (FC)” value (KB 3-1 [3]) was 1.11. For the same compound, the pIC50 (SW-620 [4]) was 8.14, the Activity (Mus musculus [5]) was “Non-Toxic” and the clearance [6] was 17.7 mL/min/kg. The pIC50 (SW-620 [7]) was 7.55, the pIC50 (SW-620 [8]) was 8.30 and the Activity (SW-620 [9]) was “Active”. For the same compound, the “fold change (FC)” value (SW-620 [10]) was 846, the “fold change (FC)” value [11] was 4.68 and the Activity (Mus musculus [12]) was “Non-Toxic”. For the same compound, the Activity (SW-620 [13]) was 59%, the “fold change (FC)” value (HEK293 [14]) was 1.47 and the “fold change (FC)” value (SW-620 [15]) was 150.38. For the same compound, the pIC50 (KB 3-1 [16]) was 8.39 and the “fold change (FC)” value (KB-C2) was 118.34.
